Patent US6767738B1, “Method of isolating adult mammalian CNS-derived progenitor stem cells using density gradient centrifugation” (The Salk Institute for Biological Studies, priority 1999, dated 2004)

Experiments:
clonal stem cells (AP14) = assay: Neuronal differentiation of clonal adult stem cell cultures (Map2ab immunofluorescence); assay type: cell-based, rat
Method: Cell Culture. For proliferating conditions, clonal stem cells (AP14) were cultured in Dulbecco's Modified Eagles Medium/Ham's F12 (DMEM/F12, 1:1) containing N2 supplement (Gibco BRL, Gaithersburg, Md.) and 20 ng/ml rhFGF-2 (provided by A. Baird, Prizm Pharmaceuticals Inc., La Jolla, Calif.). Culture dishes (Becton Dickinsin Labware, Lincoln Park, N.J.) were coated with polyomithine and mouse laminin as previously described by Ray, et al., Proliferation, differentiation and long-term culture of primary hippocampal neurons, Proc Natl Acad Sci USA 90:3602-3606 (1993). For differentiation experiments, cells were plated into polyornithine/laminin coated glass chamber slides (Nunc, Naperville, Ill.) at a density of 2.5—103 per cm2. […] Louis, Mo.). For further differentiation, the medium was replaced by N2 medium containing 0.5% FBS and one of the following: sterile water (control solvent), mouse 2.55 NGF (50 ng/ml, Boehringer Mannheim, Indianapolis, Ind.), rhBDNF (20 ng/ml, Alomone Labs, Jerusalem, Israel), rhNT-3 (40 ng/ml, Genentech, South San Francisco, Calif.). […]
Immunofluorescence. […] Both the average percentage and the absolute number +/− SEM of immunofluorescent cells were determined by counting 10 or 50 high power fields (20×) visualized under fluorescence. The total number of cells was counted using nuclear counterstaining with 4′,6diamidino-2-phenylindole (DAPI, Sigma). […]

[1] = tested on: low-buoyancy cortical cells; assay: Acquisition of neuron competence by low-buoyancy cortical cells in culture; assay type: cell-based, rat
Text: Tissue dissection: Three areas were dissected from adult rat brains as follows. Rats (170-190 g Fisher 344 males or females, Harlan) were deeply anesthetized with a mixture of ketamine, xylazine, and acepromazine. Animals were decapitated and whole brains removed. First, ˜1.5 mm of each optic nerve were harvested rostral to, but not including, the optic chiasma. The brain was then bisected longitudinally and each hippocampal lobe separated from the overlaying cortical white matter using the natural separation line along the alveus hippocampus. The white matter of the fimbria and subiculum was removed as much as possible. Some white matter remained. Finally, a 1.5 mm wide cortical ribbon containing parietal and frontal segments was dissected longitudinally, proximal to the central fissure. The pial and callosal surfaces were trimmed from each cortical ribbon to remove a majority of the meninges and white matter.
Tissue dissociation and fractionation: Tissues were finely minced and digested in a solution of papain (2.5 U/ml, Worthington), DNAse (250 U/ml, Worthington), and neutral protease (1 U/ml Dispase, Boehringer) dissolved in Hanks balanced salt solution, as described in Palmer T D, Ray J, Gage F H (1995), FGF-2-Responsive Neuronal Progenitors Reside in Proliferative and Quiescent Regions of the Adult Rodent Brain. Mol Cell Neurosci 6:474-486; and Gage F H, Coates P W, Palmer T D, Kuhn H G, Fisher L J, Suhonen J O, Peterson D A, Suhr S T, Ray J (1995), Survival and differentiation of adult neuronal progenitor cells transplanted to the adult brain. Proc Natl Acad Sci USA 92:11879-11883. Cells and tissue fragments were washed 3 times with Dulbecco's Modified Eagles Medium (DMEM) containing 10% […] bovine serum (defined FBS, Hyclone). Whole digested tissue was then suspended in DMEM 10% FBS, filtered through a sterile 107 μm nylon mesh and thoroughly mixed with an equal volume of PERCOLL™ (polyvinylpyrrolidone-coated silica colloids) solution. The PERCOLL™ (polyvinylpyrrolidone-coated silica colloids) solution was made by mixing 9 parts of PERCOLL™ (polyvinylpyrrolidone-coated silica colloids) (Pharmacia) with 1 part 10X phosphate buffered saline (PBS, Irvine Scientific). The cell suspension was then fractionated by centrifugation for 30 minute, 18°C., at 20,000×g. […]
To determine how rapidly cortical cells acquired the competence to differentiate into neurons in culture, cells were isolated and cultured in growth medium for various times, allowed to differentiate in differentiation medium and then evaluated for the presence of neurons. […] Cultures were also treated with BrdU for the first 10 days and the newly generated neurons were evaluated for evidence of cell division. All neurons scored were labeled (>99%).

Row | Compound | number of Map2ab-immunoreactive (IR) neurons relative to growth factor withdrawal and 0.5% serum alone (clonal stem cells (AP14); FGF-2 withdrawal, 500 nM RA plus 0.5% FBS 6 days, then 6 days 0.5% serum alone) | increase in number of MAP2ab-positive cells (clonal stem cells (AP14); RA for 6 days, then RA withdrawn for additional 6 days) [fold] | newly generated neurons labeled with BrdU ([1]; BrdU for the first 10 days) [%] | neurons observed in cortical cultures ([1]; after three days in FGF-2) | cells that formed neurons when induced to differentiate ([1]; by 4 weeks in FGF-2 growth medium, 3 passages)
1 | CC1=C(/C=C/C(C)=C/C=C/C(C)=C/C(=O)O)C(C)(C)CCC1 [RA, all-trans retinoic acid] | more than tripled | 3 | – | – | –
2 | FGF-2: basic fibroblast growth factor, human recombinant, prepared in E. coli | – | – | > 99 | the occasional neuron was observed | roughly 10%
